Like-named read-outs stand apart in the source and are kept apart here.
What was measured:
[1] = test system: NO production in LPS-activated RAW 264.7 macrophages; assay: LPS-induced NO production in RAW 264.7 macrophages (Griess reaction); format: cell-based, murine; settings: Mus musculus, RAW264.7
Procedure: RAW 264.7 cells were treated with compound for 1 hour, and then incubated for 24 hours with or without LPS. Nitrite levels in cell culture medium were determined using the Griess reaction (Chiang et al. Br J Pharmacol 2005; 146:352-63; Schmidt et al. Determination of nitrite and nitrate by the Griess reaction. In: Feelisch M, Stamler J S, editors. Methods In Nitric Oxide Research. New York: John Wiley & Sons Inc.; 1996. p. 491-'7). Cell viability was examined using the MTT based assay (Scudiero et al. Cancer Res 1988; 48:4827-33).
RAW 264.7 macrophage cells were treated with or without various concentrations of CREa8 extract for 1 hour, then LPS (1 μg/ml) was added and incubated for 24 hours. […] NO in the culture medium was measured. Percentage of cell viability was also determined using MTT assay. The data represent 3 experiments and are expressed as mean±SD. […]
The inhibition of LPS-induced NO production by C. rabens extracts or purified dLGG was investigated in murine RAW 264.7 macrophages by determination of nitrite level (equivalent to NO level) in culture medium 24 hours after treatment. […] NO in the culture medium was measured using the Griess reagent. Survival of macrophages after treatment was measured using MTT assay and calculated by the following formula: viable cell number (%)=OD570 (treated cell culture)/0D570 (vehicle control)×100. […]

[2] = test system: NO; assay: Plasma nitrite concentration in SNP-treated mice; format: in vivo, Female ICR mice; settings: topical pretreatment 30 min before SNP; dLGG 10 mg/site, PTIO 3.5 mg/site
Procedure: Female ICR mice were topically treated on their shaven back area of a 2-cm diameter (3.14 cm^2/site/mouse) with vehicle control (acetone), SNP (positive control), or with dLGG or PTIO for 30 minutes before SNP application. Mouse plasma samples were subjected to determine the nitrite content followed a published method (Moshage et al. Clin Chem 1995; 41:892-6).
To examine the capability of dLGG to scavenge NO in vivo, the plasma NO concentration in SNP-insulted mice was determined with or without pretreatment with dLGG. Female ICR mice were transdermally treated with 200 μL acetone (vehicle control) or SNP (5.96 mg/site) only for 15 minutes, or pre-treated with dLGG (10 mg/site) or PTIO (3.5 mg/site) for 30 minutes before SNP treatment.

[3] = test system: IκBα; assay: IκBα phosphorylation and degradation in LPS-stimulated RAW 264.7 cells (Western blot); format: cell-based, murine; settings: dLGG 1 h, LPS 1 μg/mL 30 min
Procedure: Total cellular proteins and the specific cytosolic and nuclear proteins were prepared using methods described in Chiang et al. Protein content was measured by the Bradford method (Bio-Rad). Protein was resolved by 5-20% gradient SDS-PAGE and subjected to immunoblotting using enhanced chemiluminescence reagents (ECL, Amersham). Monoclonal antibodies against PARP (Transduction Laboratories, Lexington, Ky.), GA3PDH (Biogenesis, Poole, UK), α-tubulin (Oncogene Science, Cambridge, UK), COX-2 (Cayman Chemical), phospho-(Ser32)-IκBα, phospho-IKKα(Ser180)/IKKβ(Ser181) (New England Biolabs, Beverly, Mass.), iNOS, IκBα, IKKα/β or NF-κB p65 (RelA) (Santa Cruz Biotechnology, Santa Cruz, Calif.) were used.
Cells were treated with various concentrations of dLGG for 1 h followed by the addition of LPS (1 μg/mL) for 30 min. Western blots was then conducted using antibodies for IκBα or phospho-IκBα.

[4] = test system: IKKα/β; assay: IKKα/β phosphorylation, IRAK-1 degradation and IKK kinase assay in LPS-stimulated RAW 264.7 cells; format: cell-based, murine
Procedure: Whole cell lysates (300 μg) of macrophages were pre-cleaned by incubation with 0.25 μg IgG and 20 μL protein A/G plus agarose beads (Santa Cruz) for 30 minutes at 4° C. Supernatants were then collected and incubated with IKKα/β antibody and protein A/G plus agarose beads at 4° C. overnight. Precipitates were washed with an IP buffer and a kinase buffer. IKK kinase activity was assayed by adding 1 μg of GST-IκBα fusion protein (Santa Cruz) and 200 μM ATP in 20 μL kinase buffer for 30 minutes at 30° C. and then stopped by mixing with the Laemmli's loading buffer and heated at 100° C. for 5 minutes. Samples were then subjected to immunoblotting.
Assays were carried out in RAW 264.7 cells to examine the effects of dLGG on levels of IKKα/β and phospho-IKKα/β, the upstream kinase of IκBα in the NF-κB signaling pathway, and the upstream kinase, IRAK-1, for activating IKK complex. Cells were pretreated with various concentrations of dLGG for 1 hours, followed by LPS stimulation (1 μg/mL for 30 min). Specific IKKα/β and the phosphorylated forms of IKKα/β or GST-IκBα were detected by immunoblotting. IKKα/β immunoprecipitates were prepared from total cell lysate using anti-IKKα/β antibody and subsequently subjected to IKK kinase assay using GST-IκBα as substrate. […] (nuclear protein) and α-tubulin (cytosolic protein) were used as loading controls.
IKK enzymatic activity was also determined to confirm whether it was correlated to the inhibition of IκBα phosphorylation by dLGG. Immunoprecipitated IKK proteins obtained from control cells (±LPS/−dLGG) or cells treated with LPS+dLGG were assayed for phosphorylation of GST-IκBα. The LPS-induced enzymatic phosphorylation of IκBα (p-IκBα) was decreased approximately 42% when treated with 75 μg/mL dLGG. The levels of immunoprecipitated IKK proteins were not affected by dLGG.

[5] = test system: NF-κB•DNA complex; assay: Electrophoretic mobility shift assay of NF-κB binding to consensus DNA in LPS-stimulated RAW 264.7 cells; format: cell-based, murine; settings: for NF-κB•DNA complex, of LPS alone: 90 minutes; for NF-κB•DNA complex level: 75 μg/mL
Procedure: EMSA was performed with the […]™ Chemiluminescent EMSA kit (Pierce Biotechnology, Rockford, Ill.). […] The DNA-protein complexes were subjected to 5-10% gradient PAGE. Competition assay with unlabeled oligonucleotide (cold DNA) was performed in parallel. […]

SMILES: CC/C=C\C/C=C\C/C=C\CCCCCCCC(=O)OC[C@H](CO[C@@H]1O[C@H](CO)[C@H](O)[C@H](O)[C@H]1O)OC(=O)CCCCCCC/C=C\C/C=C\C/C=C\CC [dLGG, 1,2-di-O-α-linolenoyl-3-O-β-galactopyranosyl-sn-glycerol]
- IC50 ([1]; RAW 264.7, LPS 1 μg/mL 24 h, read-out: 50% inhibitory concentration for LPS-induced NO production): ~14.7 µM
- IC50 ([1]; RAW 264.7, compound 1 h then LPS 1 μg/mL 24 h, read-out: IC50 for inhibiting LPS-induced NO production): ~11.4 µg/mL
- SNP-induced increase of nitrite plasma concentration [2]: suppressed
- IκBα degradation [3]: prevented
- LPS-induced phosphorylation of IκBα [3]: inhibited
- Decrease of LPS-induced enzymatic phosphorylation of IκBα (IKK kinase assay, GST-IκBα) ([4]; 75 μg/mL): approximately 42%
- IRAK-1 degradation in LPS-stimulated macrophages ([4]; LPS-stimulated): inhibited
- IKKα/β levels ([4]; dLGG 1 h, LPS 1 μg/mL 30 min): little affected
- LPS-induced phosphorylation of IKKα/β ([4]; dLGG 1 h, LPS 1 μg/mL 30 min): inhibited
- NF-κB•DNA complex, of LPS alone ([5]; 25 μg/mL): 77%
- NF-κB•DNA complex, of LPS alone ([5]; 50 μg/mL): 23%
- NF-κB•DNA complex level ([5]; LPS 60 min): 0.43 times that of LPS alone (1.0)
- NF-κB•DNA complex level ([5]; LPS 90 min): 0.30 times that of LPS alone (1.0)
- NF-κB•DNA complex level ([5]; LPS 120 min): 0.16 times that of LPS alone (1.0)
- NF-κB•DNA complex level ([5]; LPS 180 min): 0.01 times that of LPS alone (1.0)
- Inhibition of NF-κB•DNA complex formation (structure-activity study) ([5]; 100 μM, LPS 1 μg/mL, 90 min): almost completely inhibited
